The values below come from patent US8198317B2, “Methylenedioxy phenolic compounds and their use to treat disease” (The Ohio State University Research Foundation, priority 2008, dated 2012).

Each structure is given as a SMILES string.

Data set [1] has as its system Humans. Put plainly: Prevention or delay of onset of atherosclerosis in humans (Example 23). Type of data set: in vivo, human. The following applies: 2 mg/kg to 50 mg/kg iv or im, one to six months. Here is the method:
Individuals with documented risk factors for atherosclerosis and having high plasma cholesterol levels have a ultrasound analysis of the coronary (IVUS), carotid (IMT) or popliteal arteries to establish a baseline measurement. A portion of these individuals are […] administered a composition comprising a compound of the present invention in an acceptable carrier at a dose of 2 mg/kg to 50 mg/kg intravenously (iv) or intramuscular (im) I to 3 times per week over a period of approximately one to six months. The following compounds are administered to these individuals: 3,4-methylenedioxy phenyl acetate (INV 73); 3,4-methylenedioxy-6-nitrophenol (INV 74); 3,4-methylenedioxy-6-nitrophenyl acetate (INV 75); 3,4-Methylenedioxy 6-nitro phenyl lipoate (INV-7465) or 3,4-Methylenedioxy phenyl lipoate (INV-7065). The other individuals receive the carrier alone. A new ultrasound analysis at the end of the treatment period indicates higher levels of plaque in the vessels of individuals receiving the carrier.

The test system of data set [2] is Patients. Put plainly: Treatment of dyslipidemia in diabetic patients (Example 25). Type of data set: in vivo, human. The following applies: oral, 12 months. An excerpt: Individuals with Type I and Type II diabetes are at risk for future cardiovascular events such as heart attacks, strokes and kidney disease. These individuals often have abnormalities in lipids such as elevations in triglycerides and VLDL cholesterol. They are on treatments such as hypolipidemic drug therapy such as statins and fibrates (Gemfibrozil or Fenofibrate) to lover cholesterol levels in conjunction with glycemia lowering strategies such as Insulin, PPAR γ agents, Metformin or sulfonylurea therapy. In addition to these treatments they will also receive an acceptable dose of a composition comprising a compound of the present invention in an acceptable carrier orally chronically for durations in excess of 12 months. In one study, (3,4-methylenedioxy phenyl acetate (INV 73); 3,4-methylenedioxy-6-nitrophenol (INV 74); 3,4-methylenedioxy-6-nitrophenyl acetate (INV 75); are administered to these individuals. The patients undergo lipid measurements at baseline and at the end of treatment for a 12 month duration. At the end of 12 months of treatment, there is lowering of VLDL cholesterol and a decrease in triglycerides.

Data set [3] relates to Human Umbilical Vein Endothelial Cells (HUVECs). Put plainly: MTT cell toxicity assay. The following applies: HUVEC, dose range of 10 nM to 100 μM. The class given is cell-based. Here is the method: Cell Culture: All experiments were performed with cultured Human Umbilical Vein Endothelial Cells (HUVECs—Gibco, Invitrogen) and grown to confluence at 37° C. in a 5% CO2 humidified incubator, on tissue culture flasks previously coated with 1% gelatin in supplemented culture medium (M199 with 10% heat inactivated fetal calf serum, 100 U/ml penicillin, 100 μg/ml streptomycin, 2 mM glutamine, 10 mM HEPES, pH 7.4, heparin 12 I.U./ml, 1% retinal derived growth factor, Sigma). Following trypsin treatment, the cells were detached from the flasks and final mono-layers were prepared by seeding HUVECs on gelatin-precoated culture plates and then incubated for 24-48 h to ensure confluence. Cells up to the fourth passage were used for all experiments. Recombinant human TNF-α was purchased from R&D Systems (Minneapolis, Minn.).
Cell Toxicity Assays: Cellular toxicity was assessed by MTT [3-(4,5-dimethylthiazol-2-yl)-2,5-diphenyltetrazolium bromide] assay, a commercially available assay for assessment of cellular viability. INV-75 was added to HUVECs for 24 hours, and toxicity assays were performed at the end of this period. The MTT assay relies on the cellular reduction of positively charged tetrazolium salts to their intensely colored formazan product by mitochondrial dehydrogenases. Formazan production is decreased in the presence of impaired mitochondrial redox function and enhanced free radical production and may, therefore, be used as an index of cell viability responses to experimental interventions.
In short, after removing microtiter plates from the incubator, fresh medium containing a fixed volume of reconstituted MTT [3-(4,5-dimethylthiazol-2-yl)-2,5-diphenyltetrazlium bromide; final concentration: 0.5 mg/ml] was added to the wells; the plates were kept at 37° C. in a 5% CO2 environment for 2 h, and then the MTT solubilization solution provided by the manufacturer was added. The formazan product formed by the conversion of positively charged tetrazolium salts to the reduced state has low aqueous solubility and is present as purple crystals. Dissolving the formazan with a solubilization buffer (provided in kit) permits the convenient quantification of its formation. Optical density at OD 570 nm is then measured for each well on an absorbance plate reader. The within- and between-assay variability was 3 and 5%, respectively. Various concentrations of INV-75 was tested in cell based assays using the MTT assay, as described above. The concentrations tested ranged from 1 mM to 10 nM and the cells were exposed for over 24 hours in duration (FIG. 2).
On the technique in general: Formazan colour is commonly taken as a measure of viable cells.

Data set [4] relates to Patients. The data set can be described thus: Treatment of patients with Type I and Type II diabetes (Example 24). Conditions: diabetic patients, oral, 12 months. The class given is in vivo, human. An excerpt:
Individuals with Type I and Type II diabetes are at risk for future cardiovascular events such as heart attacks, strokes and kidney disease. These individuals are on prevention treatments such as hypolipidemic drug therapy such as statins and anti-hypertensive agents such as ACE inhibitors. They are already receiving glycemia lowering strategies such as Insulin, PPARγ agents, Metformin or sulfonylurea therapy. They also will receive an acceptable dose of a composition comprising a compound of the present invention in an acceptable carrier orally chronically for durations in excess of 12 months. In one study, 3,4-Methylenedioxy 6-nitro phenyl lipoate (INV-7465) or 3,4-Methylenedioxy phenyl lipoate (INV-7065) are administered to these individuals. The patients undergo the following measurements: HbA1C to assess glycemic control, urinary microalbuminura, blood pressure and lipid measurements. At the end of 12 months of treatment, there is lowering of HbA1C and urinary microalbuminuria. There is an improvement in VLDL cholesterol and a decrease in triglycerides with any of these treatments [(3,4-methylenedioxy phenyl acetate (INV 73); 3,4-methylenedioxy-6-nitrophenol (INV 74); 3,4-methylenedioxy-6-nitrophenyl acetate (INV 75); 3,4-Methylenedioxy 6-nitro phenyl lipoate (INV-7465) or 3,4-Methylenedioxy phenyl lipoate (INV-7065)].

For data set [5], the system named is Humans. The data set can be described thus: Treatment of established atherosclerosis in humans (Example 21). The following applies: oral, in excess of 12 months. Type of data set: in vivo, human. An excerpt:
Individuals with established atherosclerosis with evidence of plaque in the coronary arteries, carotid arteries or peripheral arteries are known to be at risk for future cardiovascular events such as heart attacks and strokes. These individuals are on treatments such as statins and anti-hypertensive agents such as ACE inhibitors, diuretics or calcium channel blockers. They also will receive an acceptable dose of a composition comprising a compound of the present invention in an acceptable carrier orally and chronically for durations in excess of 12 months. In one study, 3,4-methylenedioxy phenyl acetate (INV 73); 3,4-methylenedioxy-6-nitrophenol (INV 74); 3,4-methylenedioxy-6-nitrophenyl acetate (INV 75); 3,4-Methylenedioxy 6-nitro phenyl lipoate (INV-7465) or 3,4-Methylenedioxy phenyl lipoate (INV-7065) are administered to these individuals. A repeat IVUS measurement is made at the end of the treatment period to assess the effect of the infusion of the composition on coronary atherosclerosis in the target vessel.

Data set [6] concerns Humans. Put plainly: Treatment of atherosclerosis in humans, primary prevention (Example 22). The class given is in vivo, human. The following applies: oral, in excess of 12 months. An excerpt:
Individuals with risk factors for atherosclerosis such as family history, hypertension and high cholesterol are known to be at risk for future cardiovascular events such as heart attacks and strokes. These individuals are on primary prevention treatments such as hypolipidemic drug therapy such as statins aspirin and anti-hypertensive agents such as ACE inhibitors, diuretics or calcium channel blockers. They also will receive an acceptable dose of a composition comprising a compound of the present invention in an acceptable carrier orally chronically for durations in excess of 12 months. In one study, 3,4-methylenedioxy phenyl acetate (INV 73); 3,4-methylenedioxy-6-nitrophenol (INV 74); 3,4-methylenedioxy-6-nitrophenyl acetate (INV 75); 3,4-Methylenedioxy 6-nitro phenyl lipoate (INV-7465) or 3,4-Methylenedioxy phenyl lipoate (INV-7065) are administered to these individuals. A repeat IVUS measurement is made at the end of the treatment period to assess the effect of the infusion of the composition on coronary atherosclerosis in the target vessel.

Consider `CC(=O)Oc1ccc2c(c1)OCO2` [INV-73, 3,4-Methylenedioxyphenyl acetate], for which the “preventing or reducing atherosclerosis (ultrasound, versus carrier alone)” value with Humans [1] is given as “effective”. The VLDL cholesterol entry with Patients [2] is “lowering”; with Patients [4], “improvement”. For the same compound, the triglycerides entry in the data set on Patients [2] and in the data set with Patients [4] was “decrease” throughout. For the same compound, the “cell toxicity results compared with those of INV-75” value in data set [3] is on record as “identical”. Besides, the “plaque in the atherosclerotic coronary artery (IVUS)” value with Humans [5] and with Humans [6] was “reduced” throughout.

Consider `O=[N+]([O-])c1cc2c(cc1O)OCO2` [INV-74, 3,4-Methylenedioxy-6-nitrophenol], for which, in the data set on Humans [1], the “preventing or reducing atherosclerosis (ultrasound, versus carrier alone)” value is “effective”. For the same compound, the VLDL cholesterol entry with Patients [2] is reported as “lowering”; with Patients [4], “improvement”. The triglycerides entry in the data set with Patients [2] and with Patients [4] was “decrease” each time. Moreover, the “cell toxicity results compared with those of INV-75” value in data set [3] is reported as “identical”. The “plaque in the atherosclerotic coronary artery (IVUS)” value in the data set on Humans [5] and in the data set on Humans [6] was “reduced” throughout.
